# Laboratory results from PMC6120918, “Epigenetic modulator UVI5008 inhibits MRSA by interfering with bacterial gyrase” (Scientific Reports, 2018).
# Columns and labels:
# DNA gyrase = target: T1, DNA gyrase (Staphylococcus aureus, UniProt P0A0K8+P20831); experiment: gyrase supercoiling assay of relaxed pBR322, agarose gel; format: biochemical
# T1 construct: gene gyrA; recombinant DNA gyrase (A and B subunits; supercoiling assay kit); with DNA gyrase subunits A and B together (holoenzyme; target subunit not determined)
# DNA gyrase subunit A = target: T2, DNA gyrase subunit A (Staphylococcus aureus, UniProt P20831); experiment: gyrase supercoiling assay, positive control at […]; format: biochemical
# T2 construct: gene gyrA; recombinant DNA gyrase (A and B subunits; supercoiling assay kit); with DNA gyrase subunit B
# T2 sequence (P20831 whole entry): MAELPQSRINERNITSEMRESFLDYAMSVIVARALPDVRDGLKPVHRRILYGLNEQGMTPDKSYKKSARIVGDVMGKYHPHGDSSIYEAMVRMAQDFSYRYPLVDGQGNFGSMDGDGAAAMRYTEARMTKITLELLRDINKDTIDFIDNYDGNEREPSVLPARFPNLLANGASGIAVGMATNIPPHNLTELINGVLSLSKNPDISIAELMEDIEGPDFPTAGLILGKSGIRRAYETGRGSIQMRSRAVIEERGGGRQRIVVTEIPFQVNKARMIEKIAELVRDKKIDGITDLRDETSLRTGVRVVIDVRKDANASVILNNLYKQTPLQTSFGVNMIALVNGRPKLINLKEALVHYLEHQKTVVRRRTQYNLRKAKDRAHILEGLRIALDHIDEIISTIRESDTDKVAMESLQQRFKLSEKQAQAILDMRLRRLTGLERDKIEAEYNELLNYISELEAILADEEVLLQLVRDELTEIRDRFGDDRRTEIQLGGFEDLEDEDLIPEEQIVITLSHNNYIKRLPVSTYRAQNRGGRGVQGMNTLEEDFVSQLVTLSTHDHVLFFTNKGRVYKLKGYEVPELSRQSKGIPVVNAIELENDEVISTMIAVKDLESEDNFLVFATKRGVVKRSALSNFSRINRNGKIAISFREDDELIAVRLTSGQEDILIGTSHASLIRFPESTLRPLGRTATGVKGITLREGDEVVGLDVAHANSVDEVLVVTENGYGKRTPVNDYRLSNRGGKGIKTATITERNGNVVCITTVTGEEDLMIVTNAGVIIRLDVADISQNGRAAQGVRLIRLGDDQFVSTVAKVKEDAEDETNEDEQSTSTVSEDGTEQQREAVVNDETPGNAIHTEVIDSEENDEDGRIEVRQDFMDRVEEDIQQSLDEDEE
# T1 sequence (P20831 whole entry): as above
# T1 sequence (P0A0K8 2-644): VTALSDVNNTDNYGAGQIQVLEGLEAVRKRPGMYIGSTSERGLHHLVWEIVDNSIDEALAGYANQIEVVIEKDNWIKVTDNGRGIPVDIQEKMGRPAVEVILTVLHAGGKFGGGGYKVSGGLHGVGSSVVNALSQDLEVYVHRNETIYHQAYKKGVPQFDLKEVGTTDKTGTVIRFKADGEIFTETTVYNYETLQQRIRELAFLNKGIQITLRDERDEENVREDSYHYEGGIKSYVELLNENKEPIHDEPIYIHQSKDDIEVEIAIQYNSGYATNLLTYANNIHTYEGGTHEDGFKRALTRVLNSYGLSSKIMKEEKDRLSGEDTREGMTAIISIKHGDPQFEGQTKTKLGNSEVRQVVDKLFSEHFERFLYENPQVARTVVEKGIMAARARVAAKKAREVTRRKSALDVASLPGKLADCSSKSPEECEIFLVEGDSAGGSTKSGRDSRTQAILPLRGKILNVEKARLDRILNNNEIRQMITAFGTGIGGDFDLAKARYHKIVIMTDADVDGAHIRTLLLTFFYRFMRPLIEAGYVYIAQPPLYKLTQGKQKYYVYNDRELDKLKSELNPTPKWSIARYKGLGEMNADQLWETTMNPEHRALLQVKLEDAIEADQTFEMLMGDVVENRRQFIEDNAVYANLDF
compound,measurement,setting,value
O=C(NCCSSCCNC(=O)/C(Cc1c[nH]c2ccc(Br)cc12)=N/O)/C(Cc1c[nH]c2ccc(Br)cc12)=N/O [UVI5008],IC50,DNA gyrase,20.4 µM
O=C(O)c1cn(C2CC2)c2cc(N3CCNCC3)c(F)cc2c1=O [ciprofloxacin],"gyrase supercoiling assay, positive control at 30 μM",DNA gyrase subunit A,Ciprofloxacin was used as the positive control since it blocks gyrase acting on the A subunit
